Values joined by “and” are separate entries in the source; they are usually repeats but may differ in a detail not shown here. Identical values can stand only once. “Also recorded” adds a separate entry of the source. Like-named read-outs stand apart in the source and are kept apart here.
What was measured:
[1] = result in words, cited from earlier work
[2] = biological target: T1, folylpolyglutamate synthetase (FPGS) (Homo sapiens, UniProt Q05932); assay: Substrate activity towards CCRF-CEM human leukemia cell folylpolyglutamate synthetase (FPGS); format: biochemical; settings: for Substrate activity: Conc 50 μM, CCRF-CEM human leukemia cell FPGS; for substrate for folylpolyglutamate synthetase: result in words
T1 construct: purified human leukemia cell folylpolyglutamate synthetase (FPGS); endogenous in cells; host or cells: CCRF-CEM human leukemia cells
T1 sequence (Q05932 43-587): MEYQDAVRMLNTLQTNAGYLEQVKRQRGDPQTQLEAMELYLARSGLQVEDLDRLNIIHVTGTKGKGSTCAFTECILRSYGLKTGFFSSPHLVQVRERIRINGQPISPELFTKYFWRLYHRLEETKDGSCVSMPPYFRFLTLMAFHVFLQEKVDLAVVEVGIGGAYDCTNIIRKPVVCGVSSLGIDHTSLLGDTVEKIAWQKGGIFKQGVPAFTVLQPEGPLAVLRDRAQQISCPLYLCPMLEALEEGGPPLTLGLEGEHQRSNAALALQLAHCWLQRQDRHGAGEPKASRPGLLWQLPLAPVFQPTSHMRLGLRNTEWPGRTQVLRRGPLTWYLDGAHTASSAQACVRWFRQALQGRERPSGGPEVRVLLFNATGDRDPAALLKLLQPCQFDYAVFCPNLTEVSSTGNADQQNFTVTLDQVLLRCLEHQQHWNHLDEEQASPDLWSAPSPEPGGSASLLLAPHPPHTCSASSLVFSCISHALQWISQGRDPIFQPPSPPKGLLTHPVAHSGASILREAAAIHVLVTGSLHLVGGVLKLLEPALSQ
Protocol: Compounds 1, 2 and 3 were evaluated as substrates of purified human leukemia cell folylpolyglutamate synthetase (FPGS).
The assays were performed as described by McGuire, Graber, Licato, Vincenz, Coward, Nimec and Galivan in Cancer Research 49:4517 (1989).

[3] = cited from earlier work
[4] = system: H35 hepatoma cells (folinic acid transport); assay: Inhibition of folinic acid transport to H35 hepatoma cells; format: cell-based; settings: for IC50: 0.25 h, Folinic acid 2 μM, 15 min uptake, read-out: I50, inhibition of folinic acid transport to H35 hepatoma cells; for transport to H35 hepatoma cells compared to methotrexate: ability to compete with folinic acid transport; for transport to tumor cells compared to methotrexate: fold versus methotrexate
[5] = biological target: T2, human dihydrofolate reductase (Homo sapiens, UniProt P00374); assay: Inhibition of dihydrofolate reductase; format: biochemical; settings: pure human enzyme from lymphoblastoid cells
T2 construct: Pure human dihydrofolate reductase from lymphoblastoid cells were used; endogenous in cells
T2 sequence (P00374 1-187): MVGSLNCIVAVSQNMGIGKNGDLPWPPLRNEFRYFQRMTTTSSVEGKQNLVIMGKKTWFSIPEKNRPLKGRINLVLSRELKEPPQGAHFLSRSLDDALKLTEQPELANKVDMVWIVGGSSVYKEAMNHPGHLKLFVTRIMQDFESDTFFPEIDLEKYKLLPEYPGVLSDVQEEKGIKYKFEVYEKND
Protocol: Pure human dihydrofolate reductase from lymphoblastoid cells were used. The enzymatic assay was performed as described by Pastore, Plante and Kisliuk in Methods in Enzymology 34:281 (1974).

[6] = system: H35 hepatoma cells; assay: Inhibition of tumor cell growth, H35 hepatoma; format: cell-based; settings: read-out: I50, inhibition of tumor cell growth, H35 hepatoma
[7] = system: CCRF-CEM human leukemia cells; assay: Inhibition of tumor cell growth, CCRF-CEM human leukemia; format: cell-based
[8] = format: physicochemical
Text: In stage II the mixed anhydride 6 or 7 is reacted with an excess amount of a diester of .tau.-methyleneglutamic acid such as diethyl-.tau.-methyleneglutamic acid. Dimethyl, dibenzyl or di-t-butyl-.tau.-methylene glutamic acid may be substituted for the diethyl derivative. Diethyl-.tau.-methylene glutamate may be added as the hydrochloride form to the mixed anhydride solutions 6 or 7, followed by the addition of an equal amount or an excess of an acid acceptor such as triethylamine. Alternatively, diethyl-.tau.-methyleneglutamate hydrochloride may be dissolved in a suitable solvent such as DMF, neutralized with an equivalent amount of the acid acceptor, and then added to the mixed anhydride solution. This reaction mixture is stirred for 18 hours at 25-30° C. and the solvent is removed by evaporation under reduced pressure. The resulting coupled product is stirred with an excess of a mixture of 0.1 N NaOH and acetonitrile for 18 hours to give target compounds 1 or 2. […] The precipitate can be recovered by filtration, washed and dried.
For the preparation of compound 3 (Scheme 3), the solution of the mixed anhydride 6 is reacted with an excess amount of the diester of 3-hydroxyglutamic acid such as dimethyl-3-hydroxyglutamate. Diethyl, dibenzyl or di-t-butyl-3-hydroxyglutamate may be substituted for the dimethyl derivative. Dimethyl-3-hydroxyglutamate may be added to the solution of the mixed anhydrie as the hydrochloride followed by the addition of an equivalent or excess amount of the acid acceptor such as triethylamine. Alternatively, dimethyl-3-hydroxyglutamate hydrochloride may be dissolved in a suitable solvent such as DMF, neutralized with an equivalent amount of the acid acceptor such as triethylamine or N-methylmorpholine and then added to the mixed anhydride solution. The reaction mixture is then stirred for 18-24 hours at 25-30° C. and the solvent is removed by rotary evaporation under reduced pressure The resulting product is stirred with an excess of a 3:1 mixture of 0.1 N NaOH:acetonitrile for 10-18 hours to give target compound 3. […]

[9] = system: Human manca lymphoid leukemia; assay: Inhibition of tumor cell growth, Human manca lymphoid leukemia; format: cell-based; settings: read-out: I50, inhibition of tumor cell growth, Human manca lymphoid leukemia
[10] = system: three tumor models; assay: Antitumor activity in three tumor models (Table I); format: cell-based; settings: result in words
Protocol: Manca cell growth assay was performed as described by Thorndike, Gaumont, Kisliuk, Sirotnak, Murthy and Nair in Cancer Research 49:158 (1989). Growth inhibition of H35hepatoma cells was measured as described by Patil, Jones, Nair, Galivan, Maley, Kisliuk, Gaumont, Duch and Ferone in the Journal of Medicinal Chemistry 32:1284 (1989) and that of CCRF-CEM human leukemia cells according to the procedures of McGuire, Graber, Licato, Vincenz, Coward, Nimec and Galivan (Cancer Research 49:4517, 1989).

[11] = system: mammalian cells; settings: versus MTX; cited from earlier work
[12] = system: antitumor activity; settings: result in words; cited from earlier work
[13] = cited from earlier work; remark: listed apart in the source
[14] = cited from earlier work; remark: listed apart in the source
[15] = Homo sapiens; CCRF-CEM; value marked *: corrected for the presence of the d-enantiomer of methyleneglutamate; duplicate experiments; read-out: I50, inhibition of tumor cell growth, CCRF-CEM human leukemia (*)
[16] = Homo sapiens; CCRF-CEM; values correspond to duplicate experiments; no asterisk; read-out: I50, inhibition of tumor cell growth, CCRF-CEM human leukemia
[17] = human leukemia cells; on a comparative basis

Substrate activity [2]	IC50 [4] [nM]	IC50 [5] [nM]	IC50 [6] [nM]	solubility in alkali [8]	IC50 [9] [nM]	Compound	metabolism to polyglutamyl derivatives [1]	antitumor activity in three tumor models [10]	substrate for folylpolyglutamate synthetase [2]	other results
1020	–	–	–	–	–	Nc1nc(N)c2nc(CCc3ccc(C(=O)N[C@@H](CCC(=O)O)C(=O)O)cc3)cnc2n1 [10-Deazaaminopterin, reference compound]	undergo polyglutamylation	–	–	–
–	–	–	–	–	–	C#CCN(Cc1ccc2nc(N)[nH]c(=O)c2c1)c1ccc(C(=O)N[C@@H](CCC(=O)O)C(=O)O)cc1 [CB 3717, N^10-propargyl-5,8-dideazafolic acid]	–	–	–	conversion to polyglutamyl derivative in normal murine tissues [3]: converted to its polyglutamyl derivatives in normal murine tissues
5 and 3	4	30	9	soluble in alkali	7	C=C(CC(NC(=O)c1ccc(CCc2cnc3nc(N)nc(N)c3n2)cc1)C(=O)O)C(=O)O (stereo not shown) [Compound 1, 4-amino-4-deoxy-10-deazapteroyl-.tau.-methyleneglutamic acid]	–	excellent antitumor activity	not substrates of CCRF-CEM human leukemia cell folylpolyglutamate synthetase; also recorded: None of the new antifolates (1, 2 or 3) is a substrate for folylpolyglutamate synthetase	transport to H35 hepatoma cells compared to methotrexate [4]: transported more efficiently to H35 hepatoma cells than methotrexate; transport to tumor cells compared to methotrexate [4]: three to five times more efficiently than methotrexate; IC50 [7, 15]: 5 nM; IC50 [7, 16]: 4 nM; inhibition of growth of human leukemia cells compared to methotrexate [7, 17]: twice as powerful as methotrexate
3 and 6	3	32	11	soluble in alkali	9	C=C(CC(NC(=O)c1ccc(C(CC)Cc2cnc3nc(N)nc(N)c3n2)cc1)C(=O)O)C(=O)O (stereo not shown) [Compound 2, 4-amino-4-deoxy-10-ethyl-10-deazapteroyl-.tau.-methyleneglutamic acid]	–	excellent antitumor activity	not substrates of CCRF-CEM human leukemia cell folylpolyglutamate synthetase; also recorded: None of the new antifolates (1, 2 or 3) is a substrate for folylpolyglutamate synthetase	transport to H35 hepatoma cells compared to methotrexate [4]: transported more efficiently to H35 hepatoma cells than methotrexate; transport to tumor cells compared to methotrexate [4]: three to five times more efficiently than methotrexate; IC50 [7, 15]: 6 nM; IC50 [7, 16]: 4 nM; inhibition of growth of human leukemia cells compared to methotrexate [7, 17]: twice as powerful as methotrexate
8 and 10	–	33	28	soluble in alkali	15	Nc1nc(N)c2nc(CCc3ccc(C(=O)NC(C(=O)O)C(O)CC(=O)O)cc3)cnc2n1 (stereo not shown) [Compound 3, 4-amino-4-deoxy-10-deazapteroyl-3-hydroxyglutamic acid]	–	excellent antitumor activity	not substrates of CCRF-CEM human leukemia cell folylpolyglutamate synthetase; also recorded: None of the new antifolates (1, 2 or 3) is a substrate for folylpolyglutamate synthetase	–
–	–	–	–	–	–	CCC(Cc1cnc2nc(N)nc(N)c2n1)c1ccc(C(=O)N[C@@H](CCC(=O)O)C(=O)O)cc1 (stereo partly shown) [Compound 10-EDAM, 10-ethyl-10-deazaaminopterin]	metabolized to their poly-.tau.-glutamyl derivatives	–	–	transport to mammalian cells compared to MTX [11]: enhanced transport to mammalian cells compared to MTX; metabolism to polyglutamyl derivatives ([1]; listed as 10-ethyl derivative): undergo polyglutamylation; antitumor activity [12]: wide spectrum of antitumor activity

Compound	Substrate activity [2]	IC50 [4] [nM]	IC50 [5] [nM]	IC50 [6] [nM]	solubility in alkali [8]	IC50 [9] [nM]	metabolism to polyglutamyl derivatives [1]	antitumor activity in three tumor models [10]	substrate for folylpolyglutamate synthetase [2]	other results
CN(Cc1cnc2nc(N)nc(N)c2n1)c1ccc(C(=O)N[C@@H](CCC(=O)O)C(=O)O)cc1 [Methotrexate, reference compound]	–	18	–	10	–	6	undergo polyglutamylation	–	–	metabolism to poly-glutamates in human tissues [13]: metabolism of the well known anticancer drug methotrexate to its poly-.tau.-glutamates in human tissues; IC50 ([7]; CCRF-CEM; values correspond to duplicate experiments; no asterisk; read-out: I50, inhibition of tumor cell growth, CCRF-CEM human leukemia): 8 nM; IC50 ([7]; Homo sapiens, CCRF-CEM; values correspond to duplicate experiments; no asterisk; read-out: I50, inhibition of tumor cell growth, CCRF-CEM human leukemia): 12 nM; metabolism to polyglutamyl derivatives ([1]; listed as MTX): metabolized to their poly-.tau.-glutamyl derivatives; formation of poly-glutamyl metabolites in rodent tissues [14]: formation of these metabolites in rodent tissues

Reference: patent publication US4996207A, “Three new non-polyglutamatable deazaaminopterins” (priority 1990, dated 1991)
